The text below walks through data of paper PMC3891821, “Discovery of Bile Salt Hydrolase Inhibitors Using an Efficient High-Throughput Screening System” (PLoS ONE, 2014).

Counter-ions that a name gives are not always drawn.

The target of one experiment is T1, rBSH (recombinant bile salt hydrolase) (Ligilactobacillus salivarius, UniProt J7H3P9).
T1 construct: His-tagged full-length BSH, E. coli host, Ni-NTA purified
T1 sequence (J7H3P9 2-324): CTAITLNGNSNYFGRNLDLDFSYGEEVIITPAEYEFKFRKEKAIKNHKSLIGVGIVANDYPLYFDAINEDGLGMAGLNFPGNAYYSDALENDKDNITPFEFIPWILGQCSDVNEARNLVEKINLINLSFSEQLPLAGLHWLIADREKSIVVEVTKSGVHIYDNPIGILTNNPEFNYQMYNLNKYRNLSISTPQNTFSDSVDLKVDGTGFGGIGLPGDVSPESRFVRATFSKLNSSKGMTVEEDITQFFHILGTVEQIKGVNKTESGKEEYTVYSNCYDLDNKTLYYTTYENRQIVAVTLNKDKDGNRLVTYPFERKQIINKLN
As to the kind of experiment: two-step assay, amino acid release. Particulars: 37 C. The format is biochemical.
For `C[C@H](CCC(=O)NCC(=O)O)[C@H]1CC[C@H]2[C@@H]3[C@H](O)C[C@@H]4C[C@H](O)CC[C@]4(C)[C@H]3C[C@H](O)[C@]12C` [sodium glycocholate], the “two-step assay, amino acid release” value is “ascertain the amount of liberated amino acids from sodium glycocholate”.

The target in another experiment is T1, rBSH (recombinant bile salt hydrolase). As to the kind of experiment: microplate precipitation assay, A600. The experiment is classed as biochemical. To be noted: pH 6.0, 37 C, DTT.
In the case of `C[C@H](CCC(=O)NCCS(=O)(=O)O)[C@H]1CC[C@H]2[C@@H]3CC[C@@H]4C[C@H](O)CC[C@]4(C)[C@H]3C[C@H](O)[C@]12C` [taurodeoxycholic acid], the “microplate precipitation assay, A600” value is reported as “taurodeoxycholic acid was better than other tested conjugated bile salts”.

The target is the same in a further experiment. Kind of experiment: two-step BSH assay, amino acid released from glycocholate. The experiment is classed as biochemical.
Settings: not given
The source says:
two-step BSH assay, amino acid released from glycocholate on rBSH (recombinant bile salt hydrolase)
Usually inhibition stands for the drop in the measured response relative to a control, in per cent. On to `O=C(/C=C/c1ccc(O)c(O)c1)OCCc1ccccc1` [Caffeic Acid Phenethyl Ester], for which the inhibition at 5000 µM came out at 99.7%.

For `CC(C)c1cc2c(c(O)c1O)[C@@]1(C(=O)O)CCCC(C)(C)[C@@H]1CC2` [Carnosic Acid], the inhibition at 5000 µM came to 96.8%.

On to `CC1=C(C(=O)O)N2C(=O)[C@@H](NC(=O)[C@H](N)C3=CCC=CC3)[C@H]2SC1` [Cephradine], for which the inhibition at 5000 µM turned out to be 61.8%.

Regarding `Cc1onc(-c2ccccc2Cl)c1C(=O)N[C@@H]1C(=O)N2[C@@H]1SC(C)(C)[C@@H]2C(=O)O` [Cloxacillin], the inhibition at 5000 µM is 61.2%.

Consider `CN(C)[C@@H]1C(O)=C(C(N)=O)C(=O)[C@@]2(O)C(O)=C3C(=O)c4c(O)ccc(Cl)c4[C@@H](O)[C@H]3C[C@@H]12` [Demeclocycline Hydrochloride], for which the inhibition at 5000 µM came to 92%.

As for `C[C@H]1c2cccc(O)c2C(O)=C2C(=O)[C@]3(O)C(O)=C(C(N)=O)C(=O)[C@@H](N(C)C)[C@@H]3[C@@H](O)[C@@H]21` [Doxycycline Hydrochloride], the inhibition at 5000 µM is 92.9%.

On to `O=C(O[C@@H]1Cc2c(O)cc(O)cc2O[C@@H]1c1ccc(O)c(O)c1)c1cc(O)c(O)c(O)c1` [Epicatechin monogallate], for which the inhibition at 5000 µM was 98.6%.

Turning to `CC[C@H]1OC(=O)[C@H](C)[C@@H](O[C@H]2C[C@@](C)(OC)[C@@H](O)[C@H](C)O2)[C@H](C)[C@@H](O[C@@H]2O[C@H](C)C[C@H](N(C)C)[C@H]2O)[C@](C)(O)C[C@@H](C)C(=O)[C@H](C)[C@@H](O)[C@]1(C)O` [Erythromycin], the inhibition at 5000 µM was 36.5%.

With `O=c1c(O)c(-c2ccc(O)c(O)c2)oc2c(O)c(O)cc(O)c12` [Gossypetin], the inhibition at 5000 µM is 97.3%.

Regarding `CCC[C@@H]1C[C@@H](C(=O)N[C@@H]([C@H]2O[C@H](SC)[C@H](O)[C@@H](O)[C@H]2O)[C@@H](C)O)N(C)C1` [Lincomycin], the inhibition at 5000 µM came to 67.3%.

For the compound `CC1=CC(=O)c2ccccc2C1=O` [Menadione], the inhibition at 5000 µM came to 87.2%.

On to `C=C1c2cccc(O)c2C(=O)C2=C(O)[C@]3(O)C(=O)C(C(N)=O)=C(O)[C@@H](N(C)C)[C@@H]3[C@@H](O)[C@H]12` [Methacycline Hydrochloride], for which the inhibition at 5000 µM stood at 90.2%.

As for `CN(C)[C@@H]1C(=O)C(C(N)=O)=C(O)[C@@]2(O)C(=O)C3=C(O)c4c(O)cccc4[C@@](C)(O)[C@H]3[C@H](O)[C@@H]12` [Oxytetracycline], the inhibition at 5000 µM came out at 97.4%.

Take `O=c1c(O)cccc2cc(O)c(O)c(O)c12` [Purpurogallin]: the inhibition at 5000 µM came to 83%.

As for `Cc1cc2nc3c(=O)[nH]c(=O)nc-3n(C[C@H](O)[C@H](O)[C@H](O)CO)c2cc1C` [Riboflavin], the inhibition at 1000 µM was 99.3%.

As to `Cc1cc(C)nc(NS(=O)(=O)c2ccc(N)cc2)n1` [Sulfamethazine], the inhibition at 5000 µM was found to be 48.7%.

Consider `CC[C@H]1OC(=O)C[C@@H](O)[C@H](C)[C@@H](O[C@@H]2O[C@H](C)[C@@H](O[C@H]3C[C@@](C)(O)[C@@H](O)[C@H](C)O3)[C@H](N(C)C)[C@H]2O)[C@@H](CC=O)C[C@@H](C)C(=O)/C=C/C(C)=C/[C@@H]1CO[C@@H]1O[C@H](C)[C@@H](O)[C@@H](OC)[C@H]1OC` [Tylosin], for which the inhibition at 5000 µM was determined as 23.8%.

Staying with this experiment, now noted: 5000 µM; sodium glycocholate; 30 min preincubation, 37 C.
As a reminder, the % Inhibition is how much of the control response was suppressed. As for `O=[N+]([O-])c1cc([As](=O)(O)O)ccc1O` [Roxarsone], the “% Inhibition” value turned out to be 98.4%.
